Data reported in US11045519B2, “Arginine-rich polypeptide compositions and methods of using same” (UNM Rainforest Innovations, priority 2017, dated 2021).

Biological target: T1, recombinant His-furin (Homo sapiens, UniProt P09958)
T1 construct: His
Assay: Furin cleavage of HPV16 L2 capsid protein (immunoblot)
Format: biochemical
Details: 1 μM, 3 nM His-furin, 2 h
Procedure: FIG. 9. PolyR inhibits HPV16 L2 protein cleavage by furin and induces accumulation of internalized virus particles in late endosomal fraction. (A) Equal amount of HPV16 diluted in 50 μl furin assay buffer (1 mM CaCl2), 100 mM HEPES, 0.5% Triton X-100, 1 mM β-mercaptoethanol) was loaded into six tubes, […], in the presence of 1.3 μM furin inhibitor1 (Merck Millipore Corp., Burlington, Mass.), or 1 μM polyR. Samples were mixed with SDS-PAGE sample buffer and boiled before fractionation on 9% gel. Proteins were transferred onto PVDF membranes and after blocking, incubated with affinity-purified rabbit anti-HPV16 polyclonal antibody. Secondary donkey anti-rabbit horseradish peroxidase-coupled antibody was used for detection of HPV16 capsid proteins. (B) HaCaT cells grown on coverslips were incubated with HPV16 PsVs for one hour at 37° C. to initiate virus binding (and partial internalization) before adding 1 μM polyR and further incubated for seven hours. […]
Cleavage of the L2 minor capsid protein by the cellular pro-protein convertase, furin, is an essential step in infectious entry of HPVs. […] After two hours of incubation, HPV16 cleavage was assessed by immunoblotting using anti-HPV 16 polyclonal antibody. […]

T1 sequence (P09958 108-794): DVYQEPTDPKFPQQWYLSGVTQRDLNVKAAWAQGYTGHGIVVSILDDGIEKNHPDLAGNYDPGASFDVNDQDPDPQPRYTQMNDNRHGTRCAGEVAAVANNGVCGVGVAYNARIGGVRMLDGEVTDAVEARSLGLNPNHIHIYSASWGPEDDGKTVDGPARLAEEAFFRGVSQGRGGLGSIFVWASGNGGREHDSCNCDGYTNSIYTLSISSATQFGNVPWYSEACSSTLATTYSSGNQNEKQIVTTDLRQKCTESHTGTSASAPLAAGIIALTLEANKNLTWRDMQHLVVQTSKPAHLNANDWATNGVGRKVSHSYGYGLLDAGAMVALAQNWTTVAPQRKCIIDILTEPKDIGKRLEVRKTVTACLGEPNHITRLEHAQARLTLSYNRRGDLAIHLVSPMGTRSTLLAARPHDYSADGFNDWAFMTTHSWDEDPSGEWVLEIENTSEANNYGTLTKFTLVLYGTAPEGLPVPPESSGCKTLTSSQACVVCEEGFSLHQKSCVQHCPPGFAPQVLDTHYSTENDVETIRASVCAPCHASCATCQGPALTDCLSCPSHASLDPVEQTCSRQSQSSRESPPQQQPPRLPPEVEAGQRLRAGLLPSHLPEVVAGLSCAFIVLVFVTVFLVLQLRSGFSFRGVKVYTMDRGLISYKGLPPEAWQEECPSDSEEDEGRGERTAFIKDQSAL

## poly-L-arginine [polyR]
  furin cleavage of L2 capsid protein: inhibited cleavage of the L2 capsid protein
